According to patent publication US20250318521A1, “COMBINATION FOR REDUCING PHYTOTOXICITY OF SYSTEMIC FUNGICIDES IN CROPS AND RELATED METHODS” (UPL Mauritius Limited, priority 2024, published 2025):

Test system: soyabean crop
Assay: Evaluation of % damage in soyabean crop using safener (prothioconazole phytotoxicity reduction)
Source text: A 480 SC (suspension concentrate) formulation of prothioconazole was used. The application amount of prothioconazole was high in an amount of 350 g ai/ha.
A 480 SC (suspension concentrate) formulation of prothioconazole was used. The application amount of prothioconazole was lower in an amount of 175 g ai/ha.

mancozeb
% Damage (prothioconazole 175 g ai/ha (480 SC) + safener 560 g ai/ha, ratio 1:3.2): 15.0% | % Damage (prothioconazole 175 g ai/ha (480 SC) + safener 1120 g ai/ha, ratio 1:6.4): 18.0% | % Damage (prothioconazole 175 g ai/ha (480 SC) + safener 1680 g ai/ha, ratio 1:9.6): 11.7% | % Damage (prothioconazole 350 g ai/ha (480 SC) + safener 560 g ai/ha, ratio 1:1.6): 32.5% | % Damage (prothioconazole 350 g ai/ha (480 SC) + safener 1120 g ai/ha, ratio 1:3.2): 21.7% | % Damage (prothioconazole 350 g ai/ha (480 SC) + safener 1680 g ai/ha, ratio 1:4.8): 19.2%
